Earlier results, collected in patent US10729634B2, “Sex hormone-binding globulin for use as a medicament” (FUNDACIÓ HOSPITAL UNIVERSITARI VALL D'HEBRON—INSTITUT DE …, priority 2013, dated 2020).

Experiments:
[1] = tested on: HepG2 hepatoblastoma cells; details: positive control, 3 μM; cited from earlier work
[2] = cited from earlier work

CC(C)NCC(O)c1ccc(O)c(O)c1 (stereo not shown) [Isoproterenol]
lipolysis [1]: induces lipolysis

C[C@H]1CNCCc2ccc(Cl)cc21 [Lorcaserin]
average weight loss greater than placebo ([2]; over a year): 3.1 kg
average weight loss greater than placebo, of body mass ([2]; over a year): 3%

CCCCCCCCCCC[C@@H](C[C@@H]1OC(=O)[C@H]1CCCCCC)OC(=O)[C@H](CC(C)C)NC=O [orlistat]
side effects ([2]; in vivo): associated with gastrointestinal side effects
